The values that follow are results of earlier work, collected in patent US20100273825A1, “SOLID PHARMACEUTICAL COMPOSITION CONTAINING SOLIFENACIN AMORPHOUS FORM” (ASTELLAS PHARMA INC., priority 2009, published 2010).

The target of this data set is M3 receptors (Homo sapiens, UniProt P20309). The following applies: M3 in smooth muscles, gland tissues; M2 in the heart.
M3 receptors, sequence (P20309 whole entry): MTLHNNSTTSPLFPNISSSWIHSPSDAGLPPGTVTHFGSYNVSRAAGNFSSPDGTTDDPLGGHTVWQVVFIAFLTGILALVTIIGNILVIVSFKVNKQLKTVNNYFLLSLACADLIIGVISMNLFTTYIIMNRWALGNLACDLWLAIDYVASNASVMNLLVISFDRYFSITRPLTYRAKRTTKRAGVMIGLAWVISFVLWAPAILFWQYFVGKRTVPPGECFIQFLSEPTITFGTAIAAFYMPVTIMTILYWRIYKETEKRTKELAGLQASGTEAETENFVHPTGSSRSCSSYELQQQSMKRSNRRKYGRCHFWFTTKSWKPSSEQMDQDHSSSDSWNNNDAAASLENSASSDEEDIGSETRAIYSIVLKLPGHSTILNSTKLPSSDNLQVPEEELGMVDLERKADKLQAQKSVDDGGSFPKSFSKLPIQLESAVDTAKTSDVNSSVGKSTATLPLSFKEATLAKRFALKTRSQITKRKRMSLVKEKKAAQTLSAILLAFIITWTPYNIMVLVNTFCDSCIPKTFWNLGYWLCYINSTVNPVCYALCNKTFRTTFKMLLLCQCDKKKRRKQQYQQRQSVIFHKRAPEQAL

Turning to `O=C(O[C@H]1CN2CCC1CC2)N1CCc2ccccc2[C@@H]1c1ccccc1` [solifenacin, (R)-quinuclidin-3-yl (S)-1-phenyl-1,2,3,4-tetrahydroisoquinoline-2-carboxylate], the “Selectivity for M3 receptors in comparison with M2 receptors” value is recorded as “high selectivity”.
